# Measurements as given in ChEMBL document CHEMBL1201862, “PubChem BioAssay data set” (2004).
# Calls of active or inactive are those of the source.
# Columns and labels:
# [1] = test system: Streptococcus sp. 'group A'; assay: growth inhibition of control SK(-) GAS strain, dose response, counter-screen for streptokinase expression inhibitor project, luminescence, kanamycin, BacTiterGlo, confirmation (AID 1900); format: functional, organism-based
# [2] = cytotoxicity toward NIH3T3 fibroblasts, dose response, counter-screen, cell-based, ATP luminescence, mouse fibroblasts (AID 2010); format: functional;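 also: cells exposed to compound for about 90 hours before reading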
# [3] = test system: Streptococcus; assay: Group A Streptococcus viability loss, dose response, counter-screen for streptokinase expression inhibitor project, luminescence, BacTiterGlo (AID 1915); format: functional, organism-based;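 also: potency for reduction of bacterial viability or growth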
# [4] = target: T1, Replicative DNA helicase DnaB (Mycobacterium tuberculosis, UniProt P9WMR3); assay: DnaB intein splicing inhibitors, dose response, biochemical, cell-free fluorescence (AID 449749); format: functional
# T1 sequence (P9WMR3 whole entry): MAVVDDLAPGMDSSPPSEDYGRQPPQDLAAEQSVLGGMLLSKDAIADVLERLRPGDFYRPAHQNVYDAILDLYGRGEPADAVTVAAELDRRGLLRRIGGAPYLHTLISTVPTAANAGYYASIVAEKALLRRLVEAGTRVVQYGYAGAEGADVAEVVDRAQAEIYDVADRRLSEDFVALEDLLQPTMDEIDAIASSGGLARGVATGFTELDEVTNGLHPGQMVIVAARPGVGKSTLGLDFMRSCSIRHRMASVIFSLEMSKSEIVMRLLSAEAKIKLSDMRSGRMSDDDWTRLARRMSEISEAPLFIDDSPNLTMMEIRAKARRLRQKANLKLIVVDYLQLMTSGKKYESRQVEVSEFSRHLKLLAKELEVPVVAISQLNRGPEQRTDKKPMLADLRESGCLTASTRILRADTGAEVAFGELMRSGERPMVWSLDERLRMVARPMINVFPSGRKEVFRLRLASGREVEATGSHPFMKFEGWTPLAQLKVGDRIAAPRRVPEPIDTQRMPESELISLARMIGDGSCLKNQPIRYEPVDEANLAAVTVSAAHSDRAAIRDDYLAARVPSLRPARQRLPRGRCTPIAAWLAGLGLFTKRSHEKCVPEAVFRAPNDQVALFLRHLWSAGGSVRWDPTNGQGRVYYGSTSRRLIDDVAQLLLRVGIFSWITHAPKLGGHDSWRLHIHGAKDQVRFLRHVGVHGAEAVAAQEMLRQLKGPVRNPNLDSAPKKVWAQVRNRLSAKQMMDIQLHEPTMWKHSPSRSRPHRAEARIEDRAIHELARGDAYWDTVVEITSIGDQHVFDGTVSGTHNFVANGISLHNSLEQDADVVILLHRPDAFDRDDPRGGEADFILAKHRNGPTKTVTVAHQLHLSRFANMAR
# [5] = target: Nonstructural protein 1 (Influenza A virus, UniProt Q194T2); format: functional, Influenza A virus (A/California/07/2009(H1N1))
# Sequence of Nonstructural protein 1 (Q194T2 whole entry): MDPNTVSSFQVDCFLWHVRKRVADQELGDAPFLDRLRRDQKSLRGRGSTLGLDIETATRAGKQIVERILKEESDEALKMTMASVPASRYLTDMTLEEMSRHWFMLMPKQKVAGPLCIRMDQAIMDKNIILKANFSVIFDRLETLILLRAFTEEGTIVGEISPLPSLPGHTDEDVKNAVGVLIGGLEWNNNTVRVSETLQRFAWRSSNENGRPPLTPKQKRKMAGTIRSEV
# [6] = inhibitors of intracellular T. cruzi replication, confirmation, NIH3T3 host cells, beta-gal luminescence (AID 2044); format: functional, cell-based;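 also: intracellular parasites grown in NIH/3T3 mouse fibroblasts as host cells; luminescent beta-galactosidase reporter signal from transgenic T. cruzi replicating inside host cells; inhibitors lower the luminescence signal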
# [7] = target: T2, Streptokinase A (Streptococcus pyogenes serotype M1, UniProt P10520); assay: S. pyogenes streptokinase expression inhibitors, potency, dose response, plasminogen activation absorbance, OD405 (AID 1914); format: functional, Streptococcus pyogenes M1 GAS;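 also: secreted streptokinase activity via plasminogen activation per viability signal from cell pellet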
# T2 sequence (P10520 whole entry): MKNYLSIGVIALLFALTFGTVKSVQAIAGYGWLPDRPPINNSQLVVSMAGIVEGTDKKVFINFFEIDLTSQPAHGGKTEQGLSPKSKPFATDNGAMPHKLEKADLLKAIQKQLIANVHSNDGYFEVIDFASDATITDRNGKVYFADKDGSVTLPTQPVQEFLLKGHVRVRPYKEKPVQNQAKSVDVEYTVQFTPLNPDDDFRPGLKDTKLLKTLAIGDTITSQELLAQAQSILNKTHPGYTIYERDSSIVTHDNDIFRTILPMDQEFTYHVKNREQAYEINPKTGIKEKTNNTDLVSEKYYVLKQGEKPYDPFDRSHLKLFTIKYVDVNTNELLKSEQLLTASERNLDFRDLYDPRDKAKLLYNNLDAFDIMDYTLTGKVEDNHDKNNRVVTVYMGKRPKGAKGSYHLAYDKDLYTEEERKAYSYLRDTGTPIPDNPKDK
# [8] = target: T3, Protein RecA (Mycobacterium tuberculosis, UniProt P9WHJ3); assay: Fluorescence Cell-Free Homogeneous Dose Retest to Identify Inhibitors of RecA-Intein Splicing Activity. [Related pubchem assays (depositor defined):AID2097, AID2223, AID489010, AID492950]; format: functional
# T3 sequence (P9WHJ3 whole entry): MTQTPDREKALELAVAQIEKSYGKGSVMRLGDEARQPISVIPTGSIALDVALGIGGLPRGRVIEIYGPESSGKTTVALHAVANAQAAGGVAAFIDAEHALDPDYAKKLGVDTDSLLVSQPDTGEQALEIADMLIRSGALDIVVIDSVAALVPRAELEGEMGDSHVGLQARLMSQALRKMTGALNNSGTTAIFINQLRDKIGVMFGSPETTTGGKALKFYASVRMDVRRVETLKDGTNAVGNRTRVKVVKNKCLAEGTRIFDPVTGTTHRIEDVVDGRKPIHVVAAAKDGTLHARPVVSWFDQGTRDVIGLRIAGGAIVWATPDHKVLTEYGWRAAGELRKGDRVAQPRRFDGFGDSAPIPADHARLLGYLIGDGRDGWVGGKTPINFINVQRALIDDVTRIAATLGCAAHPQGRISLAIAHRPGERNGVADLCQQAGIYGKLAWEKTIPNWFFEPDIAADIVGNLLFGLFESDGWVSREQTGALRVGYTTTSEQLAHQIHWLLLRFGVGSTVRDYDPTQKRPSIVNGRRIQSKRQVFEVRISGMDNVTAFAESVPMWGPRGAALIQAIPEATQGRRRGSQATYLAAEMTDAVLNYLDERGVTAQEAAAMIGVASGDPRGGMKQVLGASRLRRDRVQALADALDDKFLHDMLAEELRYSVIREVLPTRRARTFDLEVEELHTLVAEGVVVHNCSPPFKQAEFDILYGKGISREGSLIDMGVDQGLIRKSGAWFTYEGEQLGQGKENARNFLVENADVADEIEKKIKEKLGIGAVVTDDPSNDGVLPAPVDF
# [9] = target: Ras and Rab interactor 1/Tyrosine-protein kinase ABL1 (Homo sapiens, UniProt P00519+Q13671); format: functional;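 also: biochemical TR-FRET dose-response test measuring inhibition of binding between Rin1 and Abl proteins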
# Sequence of Ras and Rab interactor 1/Tyrosine-protein kinase ABL1 (P00519 whole entry): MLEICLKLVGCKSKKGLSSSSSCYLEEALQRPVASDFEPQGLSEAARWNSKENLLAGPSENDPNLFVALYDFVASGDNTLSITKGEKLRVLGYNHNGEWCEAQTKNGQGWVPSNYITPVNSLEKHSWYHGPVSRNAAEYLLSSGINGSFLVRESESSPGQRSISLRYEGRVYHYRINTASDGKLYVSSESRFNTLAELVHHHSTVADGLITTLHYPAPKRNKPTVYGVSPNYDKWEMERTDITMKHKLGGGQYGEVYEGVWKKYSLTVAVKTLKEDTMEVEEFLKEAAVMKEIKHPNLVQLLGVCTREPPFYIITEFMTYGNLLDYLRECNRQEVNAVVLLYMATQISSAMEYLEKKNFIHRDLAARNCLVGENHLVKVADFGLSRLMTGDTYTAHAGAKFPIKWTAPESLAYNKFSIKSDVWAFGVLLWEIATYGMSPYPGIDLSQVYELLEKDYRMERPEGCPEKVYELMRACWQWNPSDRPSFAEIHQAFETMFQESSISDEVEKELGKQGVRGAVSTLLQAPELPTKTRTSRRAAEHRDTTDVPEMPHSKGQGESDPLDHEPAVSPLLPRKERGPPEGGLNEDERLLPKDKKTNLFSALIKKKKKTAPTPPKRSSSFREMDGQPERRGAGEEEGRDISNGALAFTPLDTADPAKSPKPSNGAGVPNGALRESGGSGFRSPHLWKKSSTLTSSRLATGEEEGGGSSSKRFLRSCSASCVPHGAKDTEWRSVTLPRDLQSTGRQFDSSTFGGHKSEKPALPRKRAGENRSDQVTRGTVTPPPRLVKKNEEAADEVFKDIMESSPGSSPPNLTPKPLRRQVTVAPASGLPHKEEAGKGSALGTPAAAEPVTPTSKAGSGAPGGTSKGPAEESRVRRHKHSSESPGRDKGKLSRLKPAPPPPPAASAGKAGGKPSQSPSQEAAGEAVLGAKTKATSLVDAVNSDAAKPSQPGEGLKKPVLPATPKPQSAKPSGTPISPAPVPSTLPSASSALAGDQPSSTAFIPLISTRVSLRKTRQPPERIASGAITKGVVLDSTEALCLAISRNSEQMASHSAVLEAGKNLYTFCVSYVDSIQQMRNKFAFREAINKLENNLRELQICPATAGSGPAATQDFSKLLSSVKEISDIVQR
# Sequence of Ras and Rab interactor 1/Tyrosine-protein kinase ABL1 (Q13671 whole entry): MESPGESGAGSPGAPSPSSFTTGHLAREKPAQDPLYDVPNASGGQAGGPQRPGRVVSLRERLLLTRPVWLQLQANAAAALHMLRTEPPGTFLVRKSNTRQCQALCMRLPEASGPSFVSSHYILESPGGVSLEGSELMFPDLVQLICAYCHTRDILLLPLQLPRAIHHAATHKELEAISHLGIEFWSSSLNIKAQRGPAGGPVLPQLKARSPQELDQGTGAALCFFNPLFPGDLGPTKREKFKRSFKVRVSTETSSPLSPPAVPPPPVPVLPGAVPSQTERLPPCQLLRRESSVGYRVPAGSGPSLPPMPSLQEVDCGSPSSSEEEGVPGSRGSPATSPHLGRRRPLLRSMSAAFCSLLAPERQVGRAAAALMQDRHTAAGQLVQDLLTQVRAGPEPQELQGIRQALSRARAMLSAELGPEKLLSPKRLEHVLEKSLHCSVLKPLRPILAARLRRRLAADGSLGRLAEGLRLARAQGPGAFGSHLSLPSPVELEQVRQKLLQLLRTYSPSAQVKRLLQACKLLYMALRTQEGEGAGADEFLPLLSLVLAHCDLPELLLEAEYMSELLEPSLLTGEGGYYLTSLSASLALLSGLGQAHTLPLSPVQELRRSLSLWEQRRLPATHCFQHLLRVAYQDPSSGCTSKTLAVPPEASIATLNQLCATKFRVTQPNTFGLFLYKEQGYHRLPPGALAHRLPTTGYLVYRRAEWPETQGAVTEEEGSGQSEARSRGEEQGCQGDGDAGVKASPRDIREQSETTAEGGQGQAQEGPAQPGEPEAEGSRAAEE
# [10] = target: T4, DNA repair protein RAD52 homolog (Homo sapiens, UniProt P43351); format: functional, biochemical
# T4 sequence (P43351 whole entry): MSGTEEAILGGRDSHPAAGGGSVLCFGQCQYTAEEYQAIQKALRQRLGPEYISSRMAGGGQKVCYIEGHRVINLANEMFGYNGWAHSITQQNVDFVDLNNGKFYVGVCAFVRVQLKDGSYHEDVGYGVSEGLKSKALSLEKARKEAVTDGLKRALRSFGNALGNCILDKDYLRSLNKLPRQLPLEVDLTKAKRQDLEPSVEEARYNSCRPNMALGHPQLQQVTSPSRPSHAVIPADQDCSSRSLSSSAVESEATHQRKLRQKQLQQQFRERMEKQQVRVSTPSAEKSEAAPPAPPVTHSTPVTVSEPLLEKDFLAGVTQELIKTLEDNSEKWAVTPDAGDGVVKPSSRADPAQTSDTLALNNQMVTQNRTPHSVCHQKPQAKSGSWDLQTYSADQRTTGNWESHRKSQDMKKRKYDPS
# [11] = test system: SN12K1; assay: cells; format: functional; details: Homo sapiens
# [12] = test system: P388/ADR; assay: cells; format: functional; details: Mus musculus
# [13] = intracellular Trypanosoma cruzi inhibitors in host cells – cell-based, plate reader, cherry-pick samples, set 3, dose response (AID 651818); format: functional;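 also: compounds incubated with infected cells for about four days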
# [14] = inhibitors of HIV Env-driven cell fusion, dose response, cherry-pick (AID 652057); format: functional, cell-based
# [15] = inhibitors of clade B AD8 Env fusion, dose response, cell-based, cherry-pick (AID 652062); format: functional;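 also: luciferase signal from cell-cell fusion driven by HIV-1 clade B AD8 Env; potency is for inhibitors of fusion seen as a drop in luminescence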
# [16] = ZM109 Env clade C HIV-1 fusion inhibitors, dose response, HeLa effector, CEM target cells, luciferase, cherry-pick (AID 652058); format: functional, cell-based
structure (smiles),measurement,setting,value
CCOC(=O)C1=C(C)n2c(s/c(=C/c3cccc([N+](=O)[O-])c3)c2=O)=NC1c1ccc(O)c(OC)c1 (stereo not drawn),EC50,[1],8.14 µM (active)
same,EC50,[2],> 60 µM (not active)
same,EC50,[3],> 150 µM (not active)
same,AC50,[4],13.1 µM (active)
same,IC50,[5],> 100 µM (active)
same,EC50,[6],1.11 µM (active)
same,EC50,[7],48.8 µM (active)
same,EC50,[8],1.29 µM (active)
O=C1N(c2cccc(Cl)c2)C(c2ccccc2)N2CCCN12 (stereo not drawn),IC50,[9],22.2 µM (inactive)
COc1ccc(-c2cc(NC=O)c3ncc(-c4cccc(C(=O)NCCN(C)C)c4)n3c2)c(OC)c1,AC50,[10],2.55 µM (active)
CN(CCc1ccccc1)C(=O)c1ccc(NC(=O)Cc2ccc(NC(=O)C3CCN(C(=O)c4ccccc4)CC3)cc2)cc1,IC50,[9],3.91 µM (active)
O=C1C=C[C@@H](COC2OC(CO)C(O)C(O)C2O)O1 (stereo partly drawn),GI50,[11],13.2 µM (inactive)
same,GI50,[12],0.343 µM (active)
CCN(CC)c1ccc(/C=N/NC(=O)CCCCCCC(=O)Nc2ccccc2O)c(O)c1,AC50,[13],1.94 µM (active)
C[C@@H]1CCCCO[C@@H](CN(C)C(=O)Nc2ccc(C(F)(F)F)cc2)[C@@H](C)CN([C@H](C)CO)C(=O)c2cc(NC(=O)NC3CCCCC3)ccc2O1,AC50,[13],5.12 µM (active)
C[C@H](CO)N1C[C@H](C)[C@H](CN(C)C(=O)Nc2ccccc2)Oc2c(NC(=O)c3ccncc3)cccc2C1=O,AC50,[13],2.12 µM (active)
C[C@H](CO)N1C[C@H](C)[C@H](CN(C)Cc2ccc(-c3ccccc3)cc2)Oc2ccc(NC(=O)CCCCCC(=O)Nc3ccccc3N)cc2CC1=O,AC50,[13],3.39 µM (active)
C[C@H]1CN([C@@H](C)CO)C(=O)Cc2cc(NC(=O)Cc3ccccc3)ccc2O[C@H]1CN(C)S(=O)(=O)c1ccccc1,AC50,[14],1.62 µM (active)
same,AC50,[15],7.88 µM (active)
same,AC50,[16],1.6 µM (active)
C[C@H](CO)N1C[C@H](C)[C@H](CN(C)S(=O)(=O)c2ccccc2)Oc2ccc(NC(=O)Cc3cn(C)c4ccccc34)cc2CC1=O,AC50,[14],< 0.26 µM (active)
same,AC50,[15],12 µM (active)
same,AC50,[16],0.816 µM (active)
